Species: Rattus norvegicus
Assay type: toxicity, organism-based, Sprague-Dawley
Conditions: in vivo, po, route oral GAVAGE, […]; for ABSOLUTE EOSINOPHIL / ABSOLUTE LYMPHOCYTE / ABSOLUTE MONOCYTE / ABSOLUTE SEGMENTED NEUTROPHIL / BASOPHIL / EOSINOPHIL / ERYTHROCYTE COUNT / HEMATOCRIT / HEMOGLOBIN / LEUKOCYTE COUNT / LYMPHOCYTE / MEAN CORPUSCULAR HEMOGLOBIN / MEAN CORPUSCULAR HEMOGLOBIN CONCENTRATION / MEAN CORPUSCULAR VOLUME / MONOCYTE / NEUTROPHIL / NUCLEATED RED BLOOD CELLS / PLATELET COUNT: tissue Blood; for ALANINE AMINOTRANSFERASE / ALBUMIN / ALKALINE PHOSPHATASE / ASPARTATE AMINOTRANSFERASE / BLOOD UREA NITROGEN / CARBON DIOXIDE / CHLORIDE / CHOLESTEROL / CREATINE PHOSPHOKINASE / CREATININE / GLUCOSE / LACTATE DEHYDROGENASE / LIPASE / PHOSPHORUS / POTASSIUM / SODIUM / TOTAL BILIRUBIN / TOTAL PROTEIN / URIC ACID: tissue Plasma
[1] = 0 mg/kg, 6 h, vehicle control, dose level Control, time 0.25 day
[2] = 0 mg/kg, 24 h, vehicle control, dose level Control, time 1 day
[3] = 400 mg/kg, 6 h, dose level Low, time 0.25 day

Description: DrugMatrix - Regimen: Single

ClC(Cl)(Cl)Cl [CARBON TETRACHLORIDE]
ABSOLUTE EOSINOPHIL [1]: 61.17 CELLS/uL
ABSOLUTE LYMPHOCYTE [1]: 12625.83 CELLS/uL
ABSOLUTE MONOCYTE [1]: 417.17 CELLS/uL
ABSOLUTE SEGMENTED NEUTROPHIL [1]: 1595.83 CELLS/uL
BASOPHIL [1]: 0%
EOSINOPHIL [1]: 0.33%
ERYTHROCYTE COUNT [1]: 5.46 x10E6/uL
HEMATOCRIT [1]: 36.02%
HEMOGLOBIN [1]: 13.55 G/DL
LEUKOCYTE COUNT [1]: 14.7 x10E3/uL
LYMPHOCYTE [1]: 85.83%
MEAN CORPUSCULAR HEMOGLOBIN [1]: 24.87 pg
MEAN CORPUSCULAR HEMOGLOBIN CONCENTRATION [1]: 37.65 G/DL
MEAN CORPUSCULAR VOLUME [1]: 66.03 fL
MONOCYTE [1]: 2.67%
NEUTROPHIL [1]: 11.17%
NUCLEATED RED BLOOD CELLS [1]: 0 /100WBC
PLATELET COUNT [1]: 1072.33 x10E3/uL
ALANINE AMINOTRANSFERASE [1]: 63.33 u/L
ALBUMIN [1]: 4.58 G/DL
ALKALINE PHOSPHATASE [1]: 285 u/L
ASPARTATE AMINOTRANSFERASE [1]: 116.5 u/L
BLOOD UREA NITROGEN [1]: 9.17 mg/dL
CARBON DIOXIDE [1]: 18.83 mmol/L
CHLORIDE [1]: 104.5 MEQ/L
CHOLESTEROL [1]: 68.67 mg/dL
CREATINE PHOSPHOKINASE [1]: 421 u/L
CREATININE [1]: 0.58 mg/dL
GLUCOSE [1]: 160.67 mg/dL
LACTATE DEHYDROGENASE [1]: 396 u/L
LIPASE [1]: 10.33 u/L
PHOSPHORUS [1]: 12.25 mg/dL
POTASSIUM [1]: 6.42 MEQ/L
SODIUM [1]: 142.77 MEQ/L
TOTAL BILIRUBIN [1]: 0.25 mg/dL
TOTAL PROTEIN [1]: 5.48 G/DL
URIC ACID [1]: 1.65 mg/dL
HEMATOCRIT (0 mg/kg, 24 h, dose level Control, time 1 day): 31.9%
ABSOLUTE EOSINOPHIL [2]: 23.83 CELLS/uL
ABSOLUTE LYMPHOCYTE [2]: 11026.5 CELLS/uL
ABSOLUTE MONOCYTE [2]: 98.5 CELLS/uL
ABSOLUTE SEGMENTED NEUTROPHIL [2]: 667.83 CELLS/uL
BASOPHIL [2]: 0%
EOSINOPHIL [2]: 0.17%
ERYTHROCYTE COUNT [2]: 4.92 x10E6/uL
HEMOGLOBIN [2]: 12.6 G/DL
LEUKOCYTE COUNT [2]: 11.82 x10E3/uL
LYMPHOCYTE [2]: 93%
MEAN CORPUSCULAR HEMOGLOBIN [2]: 25.7 pg
MEAN CORPUSCULAR HEMOGLOBIN CONCENTRATION [2]: 39.57 G/DL
MEAN CORPUSCULAR VOLUME [2]: 64.97 fL
MONOCYTE [2]: 0.83%
NEUTROPHIL [2]: 6%
NUCLEATED RED BLOOD CELLS [2]: 0 /100WBC
PLATELET COUNT [2]: 872.33 x10E3/uL
ALANINE AMINOTRANSFERASE [2]: 82.67 u/L
ALBUMIN [2]: 4.17 G/DL
ALKALINE PHOSPHATASE [2]: 321.83 u/L
ASPARTATE AMINOTRANSFERASE [2]: 99.5 u/L
BLOOD UREA NITROGEN [2]: 13.33 mg/dL
CARBON DIOXIDE [2]: 33.67 mmol/L
CHLORIDE [2]: 99.83 MEQ/L
CHOLESTEROL [2]: 64 mg/dL
CREATINE PHOSPHOKINASE [2]: 275.33 u/L
CREATININE [2]: 0.21 mg/dL
GLUCOSE [2]: 146.17 mg/dL
LACTATE DEHYDROGENASE [2]: 101 u/L
LIPASE [2]: 9.83 u/L
PHOSPHORUS [2]: 8.82 mg/dL
POTASSIUM [2]: 5.51 MEQ/L
SODIUM [2]: 143.2 MEQ/L
TOTAL BILIRUBIN [2]: 0.18 mg/dL
TOTAL PROTEIN [2]: 5.83 G/DL
URIC ACID [2]: 0.63 mg/dL
ABSOLUTE EOSINOPHIL [3]: 44 CELLS/uL
ABSOLUTE LYMPHOCYTE [3]: 11229.17 CELLS/uL
ABSOLUTE MONOCYTE [3]: 321.83 CELLS/uL
ABSOLUTE SEGMENTED NEUTROPHIL [3]: 3421.67 CELLS/uL
BASOPHIL [3]: 0%
EOSINOPHIL [3]: 0.33%
ERYTHROCYTE COUNT [3]: 6.19 x10E6/uL
HEMATOCRIT [3]: 40.97%
HEMOGLOBIN [3]: 15.07 G/DL
LEUKOCYTE COUNT [3]: 15.02 x10E3/uL
LYMPHOCYTE [3]: 73%
MEAN CORPUSCULAR HEMOGLOBIN [3]: 24.45 pg
MEAN CORPUSCULAR HEMOGLOBIN CONCENTRATION [3]: 36.95 G/DL
MEAN CORPUSCULAR VOLUME [3]: 66.17 fL
MONOCYTE [3]: 2.17%
NEUTROPHIL [3]: 24.5%
NUCLEATED RED BLOOD CELLS [3]: 0 /100WBC
PLATELET COUNT [3]: 1278.5 x10E3/uL
ALANINE AMINOTRANSFERASE [3]: 102.5 u/L
ALBUMIN [3]: 4.68 G/DL
ALKALINE PHOSPHATASE [3]: 305.83 u/L
ASPARTATE AMINOTRANSFERASE [3]: 279.83 u/L
BLOOD UREA NITROGEN [3]: 16.33 mg/dL
CARBON DIOXIDE [3]: 16.33 mmol/L
CHLORIDE [3]: 100.33 MEQ/L
CHOLESTEROL [3]: 70 mg/dL
CREATINE PHOSPHOKINASE [3]: 845.5 u/L
CREATININE [3]: 0.19 mg/dL
GLUCOSE [3]: 129.67 mg/dL
LACTATE DEHYDROGENASE [3]: 1003.17 u/L
LIPASE [3]: 9 u/L
PHOSPHORUS [3]: 15.78 mg/dL
POTASSIUM [3]: 7.57 MEQ/L
SODIUM [3]: 142.47 MEQ/L
TOTAL BILIRUBIN [3]: 0.3 mg/dL
TOTAL PROTEIN [3]: 6.17 G/DL
URIC ACID [3]: 3.2 mg/dL

Source: ChEMBL document CHEMBL3885881, “DrugMatrix”
